# Assay results from PubChem BioAssay (NCI).
#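 These data come from cells grown in 96-well plates and exposed to compound for 48 hours at five concentrations. TGI: concentration producing complete growth inhibition.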
# Tests used:
# Experiment in all cases: NCI-60 cell line screen, 48 h
# [1] = tested on: CCRF-CEM leukemia
# [2] = tested on: SN12C renal
# [3] = tested on: MOLT-4 leukemia
# [4] = tested on: NCI-H460 lung
# [5] = tested on: SNB-75 CNS
# [6] = tested on: SNB-19 CNS
# [7] = tested on: A549 NSCLC
# [8] = tested on: MDA-MB-435
# [9] = tested on: MALME-3M melanoma
# [10] = tested on: HCC-2998 colon
# [11] = tested on: RXF 393 renal
# [12] = tested on: NCI/ADR-RES ovarian
# [13] = tested on: HS 578T breast
# [14] = tested on: KM12 colon
# [15] = tested on: OVCAR-8 ovarian
# [16] = tested on: COLO 205 colon
# [17] = tested on: HOP-92 NSCLC
# [18] = tested on: UO-31 renal
# [19] = tested on: SF-268 CNS
# [20] = tested on: EKVX NSCLC
# [21] = tested on: SW-620 colon
# [22] = tested on: SF-295 CNS
# [23] = tested on: M14 melanoma
# [24] = tested on: SK-OV-3 ovarian
# [25] = tested on: T-47D breast
# [26] = tested on: LOX IMVI melanoma
# [27] = tested on: CAKI-1 renal
# [28] = tested on: UACC-62 melanoma
# [29] = tested on: OVCAR-4 ovarian
# [30] = tested on: UACC-257 melanoma
# [31] = tested on: HCT-15 colon
# [32] = tested on: NCI-H23 lung
# [33] = tested on: SF-539 CNS
# [34] = tested on: PC-3 prostate
# [35] = tested on: U251 CNS
# [36] = tested on: BT-549 breast
# [37] = tested on: SK-MEL-2 melanoma
# [38] = tested on: A498 renal
# [39] = tested on: ACHN renal
# [40] = tested on: IGROV1 ovarian
# [41] = tested on: SK-MEL-5 melanoma
# [42] = tested on: RPMI-8226 leukemia
# [43] = tested on: MCF7 breast
# [44] = tested on: 786-0 renal
# [45] = tested on: HL-60(TB) leukemia
# [46] = tested on: SK-MEL-28 melanoma
# [47] = tested on: DU-145 prostate
# [48] = tested on: HCT-116 colon
# [49] = tested on: TK-10 renal
# [50] = tested on: HT29 colon
# [51] = tested on: MDA-MB-231 breast
# [52] = tested on: OVCAR-5 ovarian
# [53] = tested on: OVCAR-3 ovarian
# [54] = tested on: HOP-62 NSCLC
# [55] = tested on: NCI-H522 lung
# [56] = tested on: SR leukemia
# [57] = tested on: K-562 leukemia
# [58] = tested on: NCI-H226 lung
smiles,measurement,setting,value
CCc1nc(N)nc(N)c1-c1ccc([N+](=O)[O-])c(Cl)c1,TGI,[1],> 100 µM
same,TGI,[2],> 100 µM
same,TGI,[3],> 100 µM
same,TGI,[4],> 100 µM
same,TGI,[5],> 92.5 µM
same,TGI,[6],> 100 µM
same,TGI,[7],> 80.8 µM
same,TGI,[8],> 100 µM
same,TGI,[9],> 100 µM
same,TGI,[10],> 100 µM
same,TGI,[11],> 100 µM
same,TGI,[12],> 100 µM
same,TGI,[13],> 100 µM
same,TGI,[14],> 100 µM
same,TGI,[15],> 100 µM
same,TGI,[16],> 100 µM
same,TGI,[17],> 100 µM
same,TGI,[18],> 100 µM
same,TGI,[19],> 100 µM
same,TGI,[20],> 100 µM
same,TGI,[21],> 100 µM
same,TGI,[22],> 100 µM
same,TGI,[23],> 100 µM
same,TGI,[24],> 100 µM
same,TGI,[25],> 100 µM
same,TGI,[26],> 100 µM
same,TGI,[27],> 100 µM
same,TGI,[28],> 100 µM
same,TGI,[29],> 100 µM
same,TGI,[30],> 100 µM
same,TGI,[31],> 100 µM
same,TGI,[32],> 100 µM
same,TGI,[33],> 94.4 µM
same,TGI,[34],> 100 µM
same,TGI,[35],> 100 µM
same,TGI,[36],> 100 µM
same,TGI,[37],> 100 µM
same,TGI,[38],> 100 µM
same,TGI,[39],> 100 µM
same,TGI,[40],> 100 µM
same,TGI,[41],> 82.5 µM
same,TGI,[42],> 100 µM
same,TGI,[43],> 100 µM
same,TGI,[44],> 100 µM
same,TGI,[45],> 100 µM
same,TGI,[46],> 100 µM
same,TGI,[47],> 100 µM
same,TGI,[48],> 100 µM
same,TGI,[49],> 100 µM
same,TGI,[50],> 100 µM
same,TGI,[51],> 100 µM
same,TGI,[52],> 100 µM
same,TGI,[53],> 100 µM
same,TGI,[54],> 100 µM
same,TGI,[55],> 52.9 µM
same,TGI,[56],> 100 µM
same,TGI,[57],> 100 µM
same,TGI,[58],> 100 µM
